Patent US20250257075A1, “MACROCYCLIC INHIBITORS OF KRAS FOR THE TREATMENT OF CANCER” (Hoffmann-La Roche Inc., priority 2022, published 2025)

How the values were obtained:
SW620 cells (KRAS G12V) = assay: Cell viability assay, G12V; format: cell-based, human; settings: Homo sapiens, SW-620; SW620, 72 hrs, Cell Counting Kit-8
Protocol: (§1) The purpose of this cellular assay was to determine the effects of test compounds on the proliferation of human cancer cell lines NCI-H358 (ATCC-CRL5807) cells, AGS (ATCC-CRL-1739) cells, SW620 (ATCC-CCL-227) over a 3-day treatment period by quantifying the amount of NADPH present at endpoint using Cell Counting Kit-8.
(§2) Cells were seeded at 5,000 cells/well (NCI-H358), 2,000 cells/well (AGS) 2,000 cells/well (SW620) in 96-well assay plates (Corning-3699) and incubated overnight. On the day of the assay, diluted compounds were then added in a final concentration of 0.5% DMSO. After 72 hrs incubation, a tenth of the volume of cell counting kit 8 (Dnjindo-CK04) was added into each well. Read the signal (OD450 minus OD650) using EnVision after 2 hrs incubation. IC50 was determined by fitting a 4-parameter sigmoidal concentration response model.

AGS cells (KRAS G12D) = assay: Cell viability assay, G12D; format: cell-based, human; settings: Homo sapiens, 72 hrs, Cell Counting Kit-8
Protocol: as §1, §2

[1] = system: phosphorylation of ERK, KRAS G12V in SW620; assay: pERK inhibition assay, G12V; format: cell-based, human; settings: Homo sapiens, SW-620; SW620, 4 hours of incubation
Protocol: (§3) This assay is to measure the ability of test compounds in inhibiting the phosphorylation of ERK, the downstream signaling of KRAS G12C in NCI-H358 cells, KRAS G12D in AGS cells, and KRAS G12V in SW620. NCI-H358 (ATCC-CRL5807) cells, AGS (ATCC-CRL-1739) cells, SW620 (ATCC-CCL-227) cells were all grown and maintained using RPMI-1640 medium (Thermo Fisher Scientific) with 10% fetal bovine serum and 1% penicillin/streptomycin. On the day prior to compound addition, cells were plated in tissue culture-treated 96 well plates (Corning-3699) at a density of 30,000 cell/well, 20,000 cell/well, 30,000 cell/well for NCI-H358, AGS and SW620 respectively, and allowed for attachment overnight. Diluted compounds were then added in a final concentration of 0.5% DMSO. After 4 hours of incubation, the medium was removed, 100 μL of 4% formaldehyde was added, and the assay plates were incubated at room temperature for 20 minutes. The plates were then washed once with phosphate buffered saline (PBS), and permeabilized with 100 μL of chilled methanol for 10 minutes. Non-specific antibody binding to the plates was blocked using 50 μL 1×BSA blocking buffer (Thermo-37520, 10-fold dilution by Phosphate-Buffered Saline Tween (PBST) for at least 1 hour at room temperature.
(§4) The amount of phosphor-ERK was determined using an antibody specific for phosphorylated form of ERK. Primary antibody (pERK, CST-4370, Cell Signaling Technology) was diluted 1:300 in blocking buffer, with 50 μL aliquoted to each well, and incubated overnight at 4° C. Cells was washed five times for 5 minutes with PBST. Secondary antibody (HRP-linked anti-rabbit IgG, CST-7074, Cell Signaling Technology) was diluted 1:1000 in blocking buffer, and 50 μL was added to each well and incubated 1-2 hrs at room temperature. Cells was washed 5 times for 5 minutes with PBST, 100 μL TMB ELISA substrate (abcam-ab171523) were added and gently shake for 20 minutes. 50 μL stop solution (abcam-ab171529) were added, and then read the signal (OD450) by EnVision.
(§5) IC50 was determined by fitting a 4-parameter sigmoidal concentration response model.

[2] = system: phosphorylation of ERK, KRAS G12C in NCI-H358 cells; assay: pERK inhibition assay, G12C; format: cell-based, human; settings: Homo sapiens; NCI-H358, 4 hours of incubation
Protocol: as §3, §4, §5

KRAS G12C-BRAF complex = target: T1, KRAS G12C-BRAF complex (Homo sapiens, UniProt P01116+P62937, G12C); assay: KRAS G12C-BRAF NanoBit assay in HEK293 cells; format: cell-based; settings: HEK293 stable cell pool, 3 hours of incubation
T1 construct: expressed in transfected cells
T1 sequence (P01116 1-188 isoform P01116-2 G12C): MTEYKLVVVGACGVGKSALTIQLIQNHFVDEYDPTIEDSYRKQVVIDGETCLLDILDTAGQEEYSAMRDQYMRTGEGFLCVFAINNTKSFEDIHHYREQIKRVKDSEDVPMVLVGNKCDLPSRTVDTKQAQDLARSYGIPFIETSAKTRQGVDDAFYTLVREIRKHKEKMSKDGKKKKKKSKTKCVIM
T1 sequence (P62937 whole entry): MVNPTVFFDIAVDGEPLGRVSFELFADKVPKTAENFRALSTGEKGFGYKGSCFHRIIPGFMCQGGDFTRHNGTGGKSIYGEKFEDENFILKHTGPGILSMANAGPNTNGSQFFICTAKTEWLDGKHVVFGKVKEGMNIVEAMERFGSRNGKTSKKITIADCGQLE
Protocol: This assay is to measure the ability of tested compounds in disruption of the KRAS G12C-BRAF complex at the cellular level, we established the NanoBit cellular assay in mammalian HEK293 (ATCC) cells. HEK293 cells were grown and maintained using DMEM medium (Thermo Fisher Scientific) with 10% fetal bovine serum and 1% penicillin/streptomycin. Both KRAS G12C and BRAF RBD were cloned into the NanoBit vectors ([…] vectors system, Promega) with the orientations SmBit-KRAS G12C and BRAF RBD-LgBit, respectively, and co-transfected into HEK293 cells. Cells were then selected with 100 μg/mL Hygromycin B (10687010, Thermo Fisher) and Blasticidin (5 μg/mL) for 4 weeks to get the stable cell pool. On the day of the assay, 75 nL of compound solution was presented in a 384-well assay plate as a 16-point 3-fold dilution starting from a final concentration of 30 μM in DMSO. Then cells were seeded at 10,000 cells/25 μL/well in a 384-well plate. After 3 hours of incubation, 6 μL of volume of Nano-Glo® Live Cell Substrate (Promega) was added into each well. Monitor luminescence using ultra384 model in Envision at 20 minutes. Compounds that facilitate disruption of the KRAS G12C-BRAF RBD complex were identified as those eliciting a decrease of luminescence relative to DMSO control wells.

[3] = system: NCI-H358 cells (KRAS G12C); assay: Cell viability assay, G12C; format: cell-based, human; settings: Homo sapiens; NCI-H358, 72 hrs, Cell Counting Kit-8
Protocol: as §1, §2

[4] = system: phosphorylation of ERK, KRAS G12D in AGS cells; assay: pERK inhibition assay, G12D; format: cell-based, human; settings: Homo sapiens, 4 hours of incubation
Protocol: as §3, §4, §5

Structure (SMILES) | IC50 (SW620 cells (KRAS G12V)) [µM] | IC50 (AGS cells (KRAS G12D)) [µM] | IC50 [1] [µM] | IC50 [2] [µM] | IC50 (KRAS G12C-BRAF complex) [µM] | IC50 [3] [µM] | IC50 [4] [µM]
CO[C@@H](C)c1ncc(N2CCN(C)CC2)cc1-c1c2c3cc(c(F)cc3n1CC(F)(F)F)-c1csc(n1)C[C@H](NC(=O)[C@H](C(C)C)N(C)C(=O)[C@H]1C[C@@H](C#Cc3nccc(C(F)(F)F)n3)C1)C(=O)N1CCC[C@H](N1)C(=O)OCC(C)(C)C2 (atropisomer, axis not shown; (M)) [Example 16, cis-N-[(1S)-1-[[(7S,13S)-24-fluoro-(20M)-20-[2-[(1S)-1-methoxyethyl]-5-(4-methylpiperazin-1-yl)-3-pyridyl]-17,17-dimethyl-8,14-dioxo-21-(2,2,2-trifluoroethyl)-15-oxa-4-thia-9,21,27,28-tetrazapentacyclo[17.5.2.1^2,5.1^9,13.0^22,26]octacosa-1(25),2,5(28),19,22(26),23-hexaen-7-yl]carbamoyl]-2-methyl-propyl]-N-methyl-3-[2-[4-(trifluoromethyl)pyrimidin-2-yl]ethynyl]cyclobutanecarboxamide] | 0.237 | 0.743 | 0.031 | 0.021 | 0.209 | 0.011 | > 10
CO[C@@H](C)c1ncc(N2CCN(CC(F)(F)F)CC2)cc1-c1c2c3cc(c(F)cc3n1CC(F)(F)F)-c1csc(n1)C[C@H](NC(=O)[C@H](C(C)C)N(C)C(=O)N1CC(C#CC(F)(F)F)C1)C(=O)N1CCC[C@H](N1)C(=O)OCC(C)(C)C2 (atropisomer, axis not shown; (M)) [Example 18, N-[(1S)-1-[[(7S,13S)-24-fluoro-(20M)-20-[2-[(1S)-1-methoxyethyl]-5-[4-(2,2,2-trifluoroethyl)piperazin-1-yl]-3-pyridyl]-17,17-dimethyl-8,14-dioxo-21-(2,2,2-trifluoroethyl)-15-oxa-4-thia-9,21,27,28-tetrazapentacyclo[17.5.2.1^2,5.1^9,13.0^22,26]octacosa-1(25),2,5(28),19,22(26),23-hexaen-7-yl]carbamoyl]-2-methyl-propyl]-N-methyl-3-(3,3,3-trifluoroprop-1-ynyl)azetidine-1-carboxamide] | > 10 | > 10 | 0.048 | 0.051 | 0.24 | 0.006 | > 10
CCn1c(-c2cc(N3CCOCC3)cnc2[C@H](C)OC)c2c3cc(c(F)cc31)-c1csc(n1)C[C@H](NC(=O)[C@H](C(C)C)N(C)C(=O)[C@H]1C[C@@H](C#Cc3nccc(C(F)(F)F)n3)C1)C(=O)N1CCC[C@H](N1)C(=O)OCC(C)(C)C2 (atropisomer, axis not shown; (M)) [Example 21, cis-N-[(1S)-1-[[(7S,13S)-21-ethyl-24-fluoro-(20M)-20-[2-[(1S)-1-methoxyethyl]-5-morpholino-3-pyridyl]-17,17-dimethyl-8,14-dioxo-15-oxa-4-thia-9,21,27,28-tetrazapentacyclo[17.5.2.1^2,5.1^9,13.0^22,26]octacosa-1(25),2,5(28),19,22(26),23-hexaen-7-yl]carbamoyl]-2-methyl-propyl]-N-methyl-3-[2-[4-(trifluoromethyl)pyrimidin-2-yl]ethynyl]cyclobutanecarboxamide] | 0.222 | 0.231 | 0.076 | 0.019 | 0.085 | 0.02 | > 10

The next lines start with the values.

IC50 (SW620 cells (KRAS G12V)) [µM] | IC50 (AGS cells (KRAS G12D)) [µM] | IC50 [1] [µM] | IC50 [2] [µM] | IC50 (KRAS G12C-BRAF complex) [µM] | IC50 [3] [µM] | IC50 [4] [µM] | Structure (SMILES)
0.152 | > 10 | 0.078 | 0.013 | 0.036 | 0.012 | 0.172 | CO[C@@H](C)c1ncc(N2CCOCC2)cc1-c1c2c3cc(c(F)cc3n1CC(F)(F)F)-c1csc(n1)C[C@H](NC(=O)[C@H](C(C)C)N(C)C(=O)[C@H]1C[C@@H](C#CC(F)(F)F)C1)C(=O)N1CCC[C@H](N1)C(=O)OCC(C)(C)C2 (atropisomer, axis not shown; (M)) [Example 22, cis-N-[(1S)-1-[[(7S,13S)-24-fluoro-(20M)-20-[2-[(1S)-1-methoxyethyl]-5-morpholino-3-pyridyl]-17,17-dimethyl-8,14-dioxo-21-(2,2,2-trifluoroethyl)-15-oxa-4-thia-9,21,27,28-tetrazapentacyclo[17.5.2.1^2,5.1^9,13.0^22,26]octacosa-1(25),2,5(28),19,22(26),23-hexaen-7-yl]carbamoyl]-2-methyl-propyl]-N-methyl-3-(3,3,3-trifluoroprop-1-ynyl)cyclobutanecarboxamide]
0.119 | > 10 | 0.096 | 0.093 | 0.084 | 0.025 | 2.51 | CCn1c(-c2cc(N3CCOCC3)cnc2[C@H](C)OC)c2c3cc(c(F)cc31)-c1csc(n1)C[C@H](NC(=O)[C@H](C(C)C)N(C)C(=O)N1CC(C#CC(F)(F)F)C1)C(=O)N1CCCC(N1)C(=O)OCC(C)(C)C2 (stereo partly drawn) [Example 20, N-[(1S)-1-[[(7S,13S)-21-ethyl-24-fluoro-(20M)-20-[2-[(1S)-1-methoxyethyl]-5-morpholino-3-pyridyl]-17,17-dimethyl-8,14-dioxo-15-oxa-4-thia-9,21,27,28-tetrazapentacyclo[17.5.2.1^2,5.1^9,13.0^22,26]octacosa-1(25),2,5(28),19,22(26),23-hexaen-7-yl]carbamoyl]-2-methyl-propyl]-N-methyl-3-(3,3,3-trifluoroprop-1-ynyl)azetidine-1-carboxamide]
